From the Biogen ADME set (Fang et al. 2023) come the findings set out here.

For the series the following is noted: for aqueous solubility: pH 6.8.

In brackets after ≈: the same amount, converted by molar mass.

Usually aqueous solubility stands for how much of the substance goes into solution per volume. A high value points to a readily soluble substance. `O[C@@H]1CO[C@H]2C[C@@H]1Nc1c(-c3ccccc3)cccc12`: the MDR1-MDCK efflux ratio worked out at 0.599; the intrinsic clearance, human liver microsomes was determined as 15 mL/min/kg; the intrinsic clearance, rat liver microsomes was found to be 367 mL/min/kg; the aqueous solubility was 17 µg/mL (≈ 63.6 µM).
The corresponding values for `Fc1cccc(CCNCc2cc(-c3ccccc3)cn3nnnc23)c1` are 0.71, 190 mL/min/kg, 1720 mL/min/kg and 13.7 µg/mL (≈ 39.5 µM).
In the case of `Cc1nsc(NCc2cncs2)n1`, the MDR1-MDCK efflux ratio turned out to be 0.684; the intrinsic clearance, human liver microsomes was no more than 4.74 mL/min/kg; the intrinsic clearance, rat liver microsomes came out at 16.8 mL/min/kg.
With `O=C(O)c1cccc(N2CCC(Oc3ccc(Cl)cc3)CC2)n1`, the MDR1-MDCK efflux ratio came out at 0.711; the intrinsic clearance, human liver microsomes was 4.88 mL/min/kg; the intrinsic clearance, rat liver microsomes was no more than 10.7 mL/min/kg; the aqueous solubility was determined as 45 µg/mL (≈ 135 µM).
Consider `COc1cc(CNC(=O)NC2CCCCC2)cc(OC)c1O`, for which the MDR1-MDCK efflux ratio was 4.18; the intrinsic clearance, human liver microsomes was no more than 4.74 mL/min/kg; the intrinsic clearance, rat liver microsomes is no more than 10.7 mL/min/kg; the aqueous solubility turned out to be 78 µg/mL (≈ 253 µM).
On the same counts, the results for `Cc1ccccc1COC1CN(C(=O)Cn2c(=O)[nH]c3ccccc32)C1` are 7.15, 15.3 mL/min/kg, 376 mL/min/kg and 45.2 µg/mL (≈ 129 µM).
As to `O=C(NC1(c2ccccc2)CCC1)c1cc(C2CC2)on1`, the MDR1-MDCK efflux ratio amounted to 0.543; the intrinsic clearance, human liver microsomes turned out to be 8.16 mL/min/kg; the intrinsic clearance, rat liver microsomes turned out to be 192 mL/min/kg; the aqueous solubility is 8.8 µg/mL (≈ 31.2 µM).
Turning to `C#C[C@@](C)(CC)NC(=O)c1cc(F)cnc1NC1CC(F)(F)C1`, the MDR1-MDCK efflux ratio was found to be 0.802; the fraction unbound, human plasma worked out at 0.0469; the fraction unbound, rat plasma was found to be 0.0708; the intrinsic clearance, human liver microsomes was 69.6 mL/min/kg. In addition, the intrinsic clearance, rat liver microsomes came to 313 mL/min/kg.
Turning to `Cc1sc(C)c(C(=O)NC2(c3ccc(C(=O)O)cc3)CC2)c1Cc1ccc(C(F)(F)F)cc1`, the MDR1-MDCK efflux ratio came out at 8.19; the intrinsic clearance, human liver microsomes was no more than 4.74 mL/min/kg; the intrinsic clearance, rat liver microsomes was 31.2 mL/min/kg; the aqueous solubility is 51.4 µg/mL (≈ 109 µM).
In the case of `CN1CCC(=C2c3ccccc3CCc3sccc32)CC1`, the MDR1-MDCK efflux ratio stood at 0.862; the intrinsic clearance, human liver microsomes was 15.1 mL/min/kg; the intrinsic clearance, rat liver microsomes turned out to be 2130 mL/min/kg.
Regarding `O=C(NCc1cnn(-c2ccccc2)c1)C1CCC1`, the MDR1-MDCK efflux ratio is 0.723; the intrinsic clearance, human liver microsomes was no more than 4.74 mL/min/kg; the intrinsic clearance, rat liver microsomes came out at 117 mL/min/kg; the aqueous solubility was found to be 31.7 µg/mL (≈ 124 µM).
The corresponding values for `CCn1c(SC)nnc1C1CCN(C)CC1` are 7.45, no more than 4.74 mL/min/kg, no more than 10.7 mL/min/kg and 41.2 µg/mL (≈ 171 µM).
`Cc1cc(C(=O)NCC2(c3ccccc3)CC2)on1` yielded an intrinsic clearance, human liver microsomes of no more than 4.74 mL/min/kg; an intrinsic clearance, rat liver microsomes of 109 mL/min/kg; an aqueous solubility of 40.1 µg/mL (≈ 157 µM).
In the case of `N=C1/C(=C\c2ccco2)C(=O)N=C2Sc3ccccc3N12`, the aqueous solubility came out at 0.73 µg/mL (≈ 2.47 µM).
Turning to `CC(C)N(C[C@@H]1O[C@@H](n2cnc3c(N)ncnc32)[C@H](O)[C@H]1O)[C@H]1C[C@@H](CCc2nc3cc(C(C)(C)C)ccc3[nH]2)C1`, the MDR1-MDCK efflux ratio was 3.45; the intrinsic clearance, human liver microsomes was 146 mL/min/kg; the intrinsic clearance, rat liver microsomes is 835 mL/min/kg.
For the compound `Cc1cc(Nc2nc(N[C@@H](C)c3ncc(F)cn3)ncc2Cl)n[nH]1`, the MDR1-MDCK efflux ratio amounted to 10.5; the intrinsic clearance, human liver microsomes worked out at 8.47 mL/min/kg; the intrinsic clearance, rat liver microsomes came out at 46.3 mL/min/kg.
`CCc1nnc(Oc2cccnc2)c(C#N)c1CC`: the MDR1-MDCK efflux ratio turned out to be 0.781; the intrinsic clearance, human liver microsomes was found to be 4.94 mL/min/kg; the intrinsic clearance, rat liver microsomes came out at 21.6 mL/min/kg; the aqueous solubility amounted to 30.5 µg/mL (≈ 120 µM).
The corresponding values for `CC(C)c1cnn2c(NCc3ccccc3)cc(NCCCCCCN)nc12` are 41.3, 7.76 mL/min/kg, 210 mL/min/kg and 50 µg/mL (≈ 131 µM).
The corresponding values for `COc1ccc(C2(NCc3ccc(N4CCCC4=O)cc3)CC2)cc1` are 0.512, 13.4 mL/min/kg, 266 mL/min/kg and 81.5 µg/mL (≈ 242 µM).
`Cc1ncc2c(n1)CN(CCCc1nc3ccccc3o1)CC2`: the MDR1-MDCK efflux ratio came out at 0.774; the intrinsic clearance, human liver microsomes turned out to be 84.5 mL/min/kg; the intrinsic clearance, rat liver microsomes is 309 mL/min/kg; the aqueous solubility was 46.6 µg/mL (≈ 151 µM).
The corresponding values for `O=C(c1sc(N2CCOCC2)nc1-c1ccccc1)N1CCCCC1` are 1.18, 45 mL/min/kg, 845 mL/min/kg and 58.4 µg/mL (≈ 163 µM).
Compound `Fc1cccc(Oc2nnnn2-c2ccccc2)c1` returned an aqueous solubility of 13.1 µg/mL (≈ 51 µM).
Turning to `CC(C)C(=O)N1CCn2nc(CNC3CCc4ccccc4CC3)cc2C1`, the MDR1-MDCK efflux ratio worked out at 27.1; the intrinsic clearance, human liver microsomes is no more than 4.74 mL/min/kg; the intrinsic clearance, rat liver microsomes turned out to be 205 mL/min/kg.
For the compound `CC(=O)Nc1ccc(C(=O)N2CCCCC2c2nc(N)ncc2-c2ccc(Cl)cc2)cc1` (stereo not given), the MDR1-MDCK efflux ratio was 106; the fraction unbound, human plasma was 0.0395; the fraction unbound, rat plasma is 0.0355; the intrinsic clearance, human liver microsomes was 40.7 mL/min/kg. The same compound registered an intrinsic clearance, rat liver microsomes of 643 mL/min/kg and an aqueous solubility of 57.8 µg/mL (≈ 128 µM).
As to `Cc1ccc(C)c2c(O)cc(CN3CC(c4ccccn4)C3)nc12`, the MDR1-MDCK efflux ratio worked out at 4.2; the intrinsic clearance, human liver microsomes worked out at 36.5 mL/min/kg; the intrinsic clearance, rat liver microsomes was 1050 mL/min/kg; the aqueous solubility amounted to 58.3 µg/mL (≈ 183 µM).
Consider `CCc1cc(CNC(=O)Nc2ccc(N3CCSCC3)cc2)on1`, for which the MDR1-MDCK efflux ratio was found to be 19.2; the intrinsic clearance, human liver microsomes worked out at 35.9 mL/min/kg; the intrinsic clearance, rat liver microsomes was 1430 mL/min/kg.
For `CN(Cc1cnn(C)c1)C(=O)c1ccccc1-c1ccccc1C#N`, the MDR1-MDCK efflux ratio turned out to be 19.3; the intrinsic clearance, human liver microsomes is 64 mL/min/kg; the intrinsic clearance, rat liver microsomes was no more than 10.7 mL/min/kg; the aqueous solubility was 40.4 µg/mL (≈ 122 µM).
In the case of `Cc1cccc2sc(NC(=O)c3cccnc3)nc12`, the MDR1-MDCK efflux ratio was 0.329 and the aqueous solubility is 0.52 µg/mL (≈ 1.93 µM).
As for `CCOC(=O)C1CCN(C(=O)c2cc3occc3c(Nc3ccc(F)cc3)n2)CC1`, the MDR1-MDCK efflux ratio was 1.32 and the aqueous solubility is 0.88 µg/mL (≈ 2.14 µM).
As for `c1ccc(-c2ncc(CNc3ncccn3)s2)nc1`, the MDR1-MDCK efflux ratio came out at 0.641; the intrinsic clearance, human liver microsomes came to 40.5 mL/min/kg; the intrinsic clearance, rat liver microsomes amounted to 2070 mL/min/kg.
Consider `Cc1noc(C)c1C(=O)N1CCCN(c2ccc(F)cc2)CC1`, for which the MDR1-MDCK efflux ratio was determined as 1.8; the intrinsic clearance, human liver microsomes came out at 111 mL/min/kg; the intrinsic clearance, rat liver microsomes worked out at 566 mL/min/kg; the aqueous solubility was 55.6 µg/mL (≈ 175 µM).
With `O=C(N[C@@H](COc1ccc2[nH]c(=O)[nH]c2c1)c1ccccc1)c1cccn(Cc2ccc(F)c(F)c2)c1=O`, the intrinsic clearance, human liver microsomes worked out at 53.2 mL/min/kg and the intrinsic clearance, rat liver microsomes was 383 mL/min/kg.
As for `COc1cccc([C@@H](C)n2cnc3cn(C)nc3c2=O)c1`, the MDR1-MDCK efflux ratio worked out at 1.44; the intrinsic clearance, human liver microsomes was no more than 4.74 mL/min/kg; the intrinsic clearance, rat liver microsomes came out at 67.2 mL/min/kg.
For the compound `COc1ccccc1CNc1cn[nH]c(=O)c1Cl`, the MDR1-MDCK efflux ratio came to 1.3; the intrinsic clearance, human liver microsomes is no more than 4.74 mL/min/kg; the intrinsic clearance, rat liver microsomes was determined as 104 mL/min/kg.
On to `O=C(NCc1ccc(CN2CCS(=O)(=O)CC2)cc1)c1ccon1`, for which the intrinsic clearance, human liver microsomes was no more than 4.74 mL/min/kg and the intrinsic clearance, rat liver microsomes was no more than 10.7 mL/min/kg.
Regarding `Nc1nc(CN2CCN(c3ccc(F)cc3)CC2)cs1`, the MDR1-MDCK efflux ratio worked out at 0.597; the intrinsic clearance, human liver microsomes was no more than 4.74 mL/min/kg; the intrinsic clearance, rat liver microsomes came to 49.7 mL/min/kg; the aqueous solubility is 57 µg/mL (≈ 195 µM).
For the compound `OCc1nnc(SCCSC2CCCCC2)n1C1CC1`, the MDR1-MDCK efflux ratio was 1.96; the intrinsic clearance, human liver microsomes turned out to be 29 mL/min/kg; the intrinsic clearance, rat liver microsomes came out at 728 mL/min/kg.
Consider `C=CC(=O)Nc1cc(-n2c(=O)ccc3cnc4ccc(-c5ccc(NS(C)(=O)=O)cc5)cc4c32)ccc1C`, for which the MDR1-MDCK efflux ratio worked out at 50.5 and the aqueous solubility came to 0.3 µg/mL (≈ 0.572 µM).
Take `N#Cc1ccnc(Nc2ccc(F)cc2)c1`: the MDR1-MDCK efflux ratio amounted to 0.609; the intrinsic clearance, human liver microsomes turned out to be 164 mL/min/kg; the intrinsic clearance, rat liver microsomes amounted to 185 mL/min/kg.
Take `CCn1cc(C2CCN(Cc3ccc(C#N)cc3)CC2)cn1`: the MDR1-MDCK efflux ratio turned out to be 0.45; the intrinsic clearance, human liver microsomes was 12.2 mL/min/kg; the intrinsic clearance, rat liver microsomes was 188 mL/min/kg; the aqueous solubility came to 43 µg/mL (≈ 146 µM).
As to `Cc1ncn(Cc2noc(-c3ccccc3O)n2)c1C`, the MDR1-MDCK efflux ratio is 0.643; the intrinsic clearance, human liver microsomes stood at 19.9 mL/min/kg; the intrinsic clearance, rat liver microsomes amounted to 483 mL/min/kg.
In the case of `Cc1cc(C(=O)O)nn1-c1ccccn1`, the intrinsic clearance, human liver microsomes is no more than 4.74 mL/min/kg and the intrinsic clearance, rat liver microsomes is no more than 10.7 mL/min/kg.
For the compound `Cc1ccc(NC(=O)c2nn(-c3ccccc3)nc2C)cc1`, the aqueous solubility was 0.29 µg/mL (≈ 0.992 µM).
For `CC1CCN(C(=O)c2n[nH]c3ccccc23)CC1`, the MDR1-MDCK efflux ratio amounted to 0.561; the intrinsic clearance, human liver microsomes is 21.4 mL/min/kg; the intrinsic clearance, rat liver microsomes turned out to be 916 mL/min/kg; the aqueous solubility was 26.4 µg/mL (≈ 109 µM).
With `CN(C)c1ccncc1CN1CCN(c2ccc(C(N)=O)cc2)CC1`, the MDR1-MDCK efflux ratio stood at 18.8; the intrinsic clearance, human liver microsomes is no more than 4.74 mL/min/kg; the intrinsic clearance, rat liver microsomes was no more than 10.7 mL/min/kg.
For the compound `CCC(C)(C)c1ccc(Oc2ccc(NC3=NN(c4ccccc4)C(=O)C3)cc2)cc1`, the intrinsic clearance, human liver microsomes came out at 7.61 mL/min/kg and the intrinsic clearance, rat liver microsomes stood at 17.1 mL/min/kg.
